In PubChem BioAssay AID1902 (Broad Institute, 2009) one finds EC50 data, which are given here for 68 compounds.

pEC50: −log10 of the molar value. Calls of active or inactive are those of the source.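 The calls were made as follows: active = EC50 no more than a set limit of log units above the highest dose; inactive = the rest.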

The target of this test is S. pyogenes SKKanGAS, kanamycin survival, BacTiterGlo, 6 h. As to the kind of experiment: S. pyogenes SKKanGAS kanamycin growth inhibitors – SKKanGAS strain, luminescence, dose confirmation, streptokinase promoter inhibitor project, dose response (AID 1902).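 Also: lower survival reflects blocked streptokinase promoter driving kanamycin resistance gene.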
In the case of `Cc1nn(-c2ccccc2)c(C)c1/C=N/NC(=O)c1cc(-c2ccc(Cl)s2)[nH]n1`, the pEC50 (as a rule, the negative decadic logarithm of the EC50, by convention in mol/L) is 5.24.

As for `N#Cc1c(-c2c(Cl)cccc2Cl)noc1/C=C/Nc1ccc(C(=O)O)cc1`, the negative logarithm of the EC50 (pEC50) is 5.34.

`CC(C)c1ccc2[nH]c3c(c2c1)CCC/C3=N\NC(=O)c1ccncc1`: the negative-log EC50 (pEC50) is 5.61.

With `Cc1cc(Br)c(OCc2ccc(C(=O)N/N=C3\CC4CC=CC34)cc2)c(Br)c1` (stereo not drawn), the pEC50 was 5.40.

For the compound `Cn1c(SCC(=O)Nc2cccc3ccccc23)nc(O)cc1=O`, the EC50 (as a rule, the concentration at which the effect is half-maximal) was > 15 µM (inactive).

For `O=C(Cn1nc(CNc2ccc(Cl)cc2)[n+]2c1CCCCC2)c1ccc(Br)cc1`, the pEC50 is 4.97.

Consider `COc1ccc(/C=C2/S/C(=N/N=C3\CC4CCC3(C)C4(C)C)NC2=O)cc1` (stereo not drawn), for which the negative-log EC50 (pEC50) was 4.97.

Take `COc1ccccc1Sc1nc(-c2ccccn2)ncc1OC`: the pEC50 was 4.83.

With `O=C(CNC(=O)c1ccc2c(c1)OCO2)N/N=C/c1cc(Br)ccc1O`, the negative-log EC50 (pEC50) was 5.62.

In the case of `S=c1[nH]cnc2scc(-c3ccc(Cl)cc3)c12`, the negative-log EC50 (pEC50) was 5.01.

Consider `CC1(C)CC(=O)C2=C(C1)N=C1c3ccccc3C(=O)C1C2c1ccc(Cl)cc1` (stereo not drawn), for which the pEC50 was 5.09.

`CN1CC(c2ccc(Cl)c(Cl)c2)[C@@]2(COc3ccccc3C2=O)[C@@]12C(=O)Nc1ccccc12` (stereo partly drawn): the pEC50 was 5.84.

As to `CCN(CC)C(=S)Sc1c(-c2ccccc2)c2cc(Cl)ccc2[nH]c1=O`, the pEC50 was 6.11.

Regarding `COc1ccc(Cn2c(SCc3ccc(C)cc3)nc3cc(OC)c(OC)cc3c2=N)cc1Cl`, the pEC50 was 5.58.

Take `COc1ccc(/C=N\NC(=O)c2cc(O)c(O)c(O)c2)cc1COc1ccc(C(=O)OCC(C)C)cc1`: the pEC50 was 5.14.

Turning to `O=C(O)c1ccc(N/N=C/c2ccc(OC(=O)c3cccc(Cl)c3)cc2)cc1`, the pEC50 is 5.85.

As for `Cn1nnnc1SCC(=O)Nc1nc(-c2ccccc2)c(-c2ccccc2)o1`, the pEC50 was 5.14.

Consider `COc1ccc(Oc2nc(-c3ccccn3)ncc2OC)cc1`, for which the pEC50 was 5.84.

For `O=C(Nc1nnc(C2CCCCC2)s1)c1ccc(Br)s1`, the pEC50 was 5.40.

Turning to `Oc1ccc(-c2nc3c4c(ncn3n2)-c2ccccc2CC42CCCC2)cc1`, the pEC50 was 6.07.

With `CC[C@@H]1CC=C[C@H]2[C@H]1C(=O)N(Cc1ccccc1)[C@H]2c1ccc(OC)c(Cl)c1`, the negative-log EC50 (pEC50) is 5.38.

Regarding `O=C(/C=C/c1cccc([N+](=O)[O-])c1)c1ccc([N+](=O)[O-])o1`, the negative logarithm of the EC50 (pEC50) is 5.54.

For the compound `COc1cc(C)ccc1OCCCOc1ccccc1Br`, the negative logarithm of the EC50 (pEC50) was 5.23.

In the case of `Cc1cc(C(=O)N/N=C/c2cc(Cl)cc([N+](=O)[O-])c2O)c2ccccc2n1`, the negative-log EC50 (pEC50) is 5.58.

Consider `CCN1CCN(C(CNS(=O)(=O)c2ccc(C)cc2)c2cccnc2)CC1` (stereo not drawn), for which the EC50 was > 15 µM (inactive).

Consider `CC(C)(C)c1cc(NCCCn2ccnc2)n2ncc(-c3ccc(Cl)cc3)c2n1`, for which the pEC50 is 5.62.

As for `O=S(=O)(Nc1ccc(-n2cccc2)cc1)c1ccc(Cl)c(Cl)c1`, the negative logarithm of the EC50 (pEC50) is 5.21.

For the compound `COc1ccc(NC(=O)CSc2nc3nc(-c4cccs4)cc(C(F)(F)F)c3c(=O)[nH]2)c(OC)c1`, the pEC50 is 5.13.

Turning to `CCN(CC)c1ccc(/C=N/NC(=O)CCC(=O)NCc2ccccc2)c(O)c1`, the pEC50 is 5.47.

For the compound `CCc1nc(SCC(=O)Nc2ccccc2OC)c2c(C)c(C)sc2n1`, the negative-log EC50 (pEC50) is 5.18.

With `COc1ccc(-c2oc(NC(=O)CCl)c(C#N)c2-c2ccc(OC)cc2)cc1`, the pEC50 was 5.51.

Turning to `Oc1ccccc1C(Nc1nccs1)c1ccc2cccnc2c1O` (stereo not drawn), the pEC50 is 5.36.

For `CCCN(CCC)S(=O)(=O)c1ccc(C(=O)Nc2nnc(COC)o2)cc1`, the negative-log EC50 (pEC50) was 5.30.

With `CCCOC(=O)c1ccc(Oc2c(-c3ccc(OC)cc3O)n[nH]c2C)cc1`, the pEC50 was 4.87.

In the case of `Cc1noc(C)c1C(=O)Nc1nccs1`, the EC50 was > 15 µM (inactive).

Regarding `COc1cccc(/C=N/Nc2nc(Nc3ccccc3)nc(-n3nc(C)cc3C)n2)c1O`, the pEC50 was 5.71.

Turning to `CCC(C)(C)c1ccc(OCCCC[n+]2cccc(C)c2)c(C(C)(C)CC)c1`, the pEC50 was 5.11.

Regarding `O=c1oc2ccccc2c(O)c1C(c1ccc([N+](=O)[O-])cc1)c1c(O)c2ccccc2oc1=O`, the negative logarithm of the EC50 (pEC50) was 5.20.

With `Oc1ccc(Cl)cc1C1=NNC(c2ccc(Cl)cc2)C1` (stereo not drawn), the negative-log EC50 (pEC50) is 5.96.

As for `O=C1C(Nc2ccccc2)=C/C(=N/S(=O)(=O)c2cccs2)c2ccccc21`, the pEC50 was 5.88.

With `Cc1nc2ccccc2n1/N=C/c1ccc([N+](=O)[O-])s1`, the pEC50 was 5.62.

Regarding `O=C(NNC(=O)c1ccccc1OCc1ccc(F)cc1)c1ccccc1O`, the pEC50 was 5.60.

As for `CCOC(=O)C1=NN(C(=O)c2ccc(OC)cc2)C(O)(c2ccc(Cl)cc2)C1` (stereo not drawn), the pEC50 was 5.22.

As for `CCCCNC(=O)c1onc(CSc2ccc(C(C)C)cc2)c1C(=O)O`, the pEC50 is 5.38.

For the compound `O=C(c1ccc(F)cc1)c1cc2ccc(O)cc2oc1=O`, the pEC50 was 5.14.

Regarding `COc1c(CC=C(C)C)cc(C2CC(=O)c3c(O)cc(O)cc3O2)cc1CC=C(C)C` (stereo not drawn), the pEC50 is 5.70.

Turning to `c1ccc(CSC2=NNC(c3ccccn3)S2)cc1` (stereo not drawn), the negative logarithm of the EC50 (pEC50) is 5.95.

For `COc1ccc(C(=O)/C=C/c2ccc(O)cc2)c(O)c1CC=C(C)C`, the pEC50 is 5.67.

For `CC(=O)OCC1=C(C(=O)O)N2C(=O)C(NC(=O)Cn3nc(C(F)F)c(Cl)c3C)C2SC1` (stereo not drawn), the negative-log EC50 (pEC50) was greater than 7.22.

Take `CC(C)n1nc(C(=O)Nc2nnc(SCc3c(Cl)cccc3Cl)s2)c2ccccc2c1=O`: the negative logarithm of the EC50 (pEC50) was 5.78.

Turning to `N#Cc1c(-c2ccccc2)nc(SCc2cccc(C(F)(F)F)c2)[nH]c1=O`, the pEC50 was 5.71.

Consider `CCCn1c(NC(=O)c2ccc(Cl)c(S(=O)(=O)N3CCCC3)c2)nc2ccccc21`, for which the pEC50 was 5.78.

`CC(C)c1ccc2[nH]c(O)c(N=NC(=O)c3cccc(S(=O)(=O)N4CCCCC4)c3)c2c1`: the pEC50 was 5.15.

As for `O=C(N/N=C/c1cc(Br)cc(Br)c1O)c1ccncc1`, the pEC50 was 6.18.

For the compound `S=c1nc2ccccc2c2nc(-c3ccccc3)[nH]n12`, the negative logarithm of the EC50 (pEC50) is 5.27.

As for `O=c1c([N+](=O)[O-])cccn1Cc1ccc(F)cc1Cl`, the pEC50 is 5.47.

With `COc1ccccc1C(=O)NNC(=S)NC(=O)c1sc2ccccc2c1Cl`, the pEC50 is greater than 7.22.

Consider `O=C(c1cc(-c2ccc(Br)cc2)nc2ccccc12)N1CCN(c2ccccc2O)CC1`, for which the pEC50 is 5.19.

For `CCn1c(O)c(/C=N/N=C/c2ccccc2)c2ccc(C3=NNC(=O)CC3)cc21`, the pEC50 was 5.37.

Consider `Nc1ccc(C#Cc2ccc3oc4ccccc4c(=O)c3c2)cc1`, for which the pEC50 was 5.86.

With `CC(C)=CCc1c(-c2ccc(O)cc2O)oc2c3c(cc(O)c2c1=O)OC(C)(C)C=C3`, the pEC50 is 5.91.

On to `Cc1nc(N)sc1N=Nc1ccc(F)cc1`, for which the negative-log EC50 (pEC50) was 5.67.

For `CCC1=NN(C(=O)c2ccccc2O)C(O)(c2ccccc2)C1` (stereo not drawn), the pEC50 was 5.71.

For the compound `C/C(=N\Nc1ccc(Cl)c(Cl)c1)c1ccc(-n2ccnc2)cc1`, the negative logarithm of the EC50 (pEC50) was 5.73.

Take `O=C(Nc1cccc(NC(=O)c2ccc([N+](=O)[O-])o2)c1)c1ccco1`: the pEC50 was 5.18.

`Clc1ccc2nc(-c3ccccn3)c(Nc3ccc4c(c3)OCO4)n2c1`: the pEC50 is 5.16.

On to `Cc1cc(SCC(=O)N/N=C/c2ccc(O)cc2O)c(C)cc1Br`, for which the pEC50 was 5.72.

Turning to `CCCOc1ccc(C(=O)NC(=S)N2CCN(c3cc4c(cc3F)c(=O)c(C(=O)O)cn4CC)CC2)cc1`, the pEC50 was 5.63.
